System: BE(2)-C cell
Assay: Cell proliferation assay (MTS) in BE(2)-C cells
Type: cell-based
Conditions: Homo sapiens, inhibition of BE(2)-C cell proliferation, 48 h
Protocol: MTS testing kit was purchased from Promega. The DMEM, Fetal bovine serum and Penicillin-Streptomycin were purchased from Gibco. Dimethyl sulfoxide (DMSO) was purchased from Sigma.
To investigate whether a compound is able to inhibit the activity of CDK4/6 in cells, mechanism-based assays using BE(2)-C cell (ATCC® number:CRL-2268) were developed. In the assay, inhibition of CDK4/6 was detected by the inhibition of BE(2)-C cell cells proliferation. BE(2)-C cell cells were cultured in culture flasks to 40-80% confluence in DMEM plus 10% fetal bovine serum. Cells were collected and plated onto 96-well plates at cell density of 3000 cells/well. Plates were incubated overnight at 37° C., with 5% CO2 to adhere. Compounds were added to the plates, the final compound concentrations were 10000, 3333, 1111, […], 123.5, 41.2, 13.7, 4.6 and 1.5 nM. Place plates at 37° C., with 5% CO2 for 48 h. After removing the medium, 20 μl MTS/100 μl medium mixture solution were added to each well and incubate the plates for exactly 2 hours. The reaction was terminated by adding 25 μl 10% SDS per well. Measure absorbance at 490 nm and 650 nm (reference wavelength). IC50 was calculated using GraphPad Prism 5.0.
Select compounds prepared as described above were assayed according to the biological procedures described herein. “++++” stands for IC50 value below about 10 nM. “+++” stands for IC50 value between greater than about 10 nM to about 100 nM. “++” stands for IC50 value between greater than about 100 nM to about […]. “+” stands for IC50 value greater than 1 μM.

Compound | IC50 [nM]
CCN1CC2(C1)CN(Cc1ccc(Nc3ncc(F)c(-c4cc(F)c5nc6n(c5c4)[C@H](CF)CC6)n3)nc1)C2 [Example 25, (S)-N-(5-((6-ethyl-2,6-diazaspiro[3.3]heptan-2-yl)methyl)pyridin-2-yl)-5-fluoro-4-(5-fluoro-1-(fluoromethyl)-2,3-dihydro-1H-benzo[d]pyrrolo[1,2-a]imidazol-7-yl)pyrimidin-2-amine] | 10 to 100
FC[C@@H]1CCc2nc3c(F)cc(-c4nc(Nc5ccc(CN6CC7CNCC7C6)cn5)ncc4F)cc3n21 (stereo partly drawn) [Example 26, 5-fluoro-4-((S)-5-fluoro-1-(fluoromethyl)-2,3-dihydro-1H-benzo[d]pyrrolo[1,2-a]imidazol-7-yl)-N-(5-((hexahydropyrrolo[3,4-c]pyrrol-2(1H)-yl)methyl)pyridin-2-yl)pyrimidin-2-amine] | > 100
CN1CC2CN(Cc3ccc(Nc4ncc(F)c(-c5cc(F)c6nc7n(c6c5)[C@H](CF)CC7)n4)nc3)CC2C1 (stereo partly drawn) [Example 27, 5-fluoro-4-((S)-5-fluoro-1-(fluoromethyl)-2,3-dihydro-1H-benzo[d]pyrrolo[1,2-a]imidazol-7-yl)-N-(5-((5-methylhexahydropyrrolo[3,4-c]pyrrol-2(1H)-yl)methyl)pyridin-2-yl)pyrimidin-2-amine] | 10 to 100
CCN1CC2CN(Cc3ccc(Nc4ncc(F)c(-c5cc(F)c6nc7n(c6c5)[C@H](CF)CC7)n4)nc3)CC2C1 (stereo partly drawn) [Example 28, N-(5-((5-ethylhexahydropyrrolo[3,4-c]pyrrol-2(1H)-yl)methyl)pyridin-2-yl)-5-fluoro-4-((S)-5-fluoro-1-(fluoromethyl)-2,3-dihydro-1H-benzo[d]pyrrolo[1,2-a]imidazol-7-yl)pyrimidin-2-amine] | 10 to 100
FC[C@@H]1CCc2nc3c(F)cc(-c4nc(Nc5ccc(CN6CCC7(CCNCC7)CC6)cn5)ncc4F)cc3n21 [Example 29, (S)-N-(5-((3,9-diazaspiro[5.5]undecan-3-yl)methyl)pyridin-2-yl)-5-fluoro-4-(5-fluoro-1-(fluoromethyl)-2,3-dihydro-1H-benzo[d]pyrrolo[1,2-a]imidazol-7-yl)pyrimidin-2-amine] | > 100
CN1CCC2(CC1)CCN(Cc1ccc(Nc3ncc(F)c(-c4cc(F)c5nc6n(c5c4)[C@H](CF)CC6)n3)nc1)CC2 [Example 30, (S)-5-fluoro-4-(5-fluoro-1-(fluoromethyl)-2,3-dihydro-1H-benzo[d]pyrrolo[1,2-a]imidazol-7-yl)-N-(5-((9-methyl-3,9-diazaspiro[5.5]undecan-3-yl)methyl)pyridin-2-yl)pyrimidin-2-amine] | > 100
CCN1CCC2(CC1)CCN(Cc1ccc(Nc3ncc(F)c(-c4cc(F)c5nc6n(c5c4)[C@H](CF)CC6)n3)nc1)CC2 [Example 31, (S)-N-(5-((9-ethyl-3,9-diazaspiro[5.5]undecan-3-yl)methyl)pyridin-2-yl)-5-fluoro-4-(5-fluoro-1-(fluoromethyl)-2,3-dihydro-1H-benzo[d]pyrrolo[1,2-a]imidazol-7-yl)pyrimidin-2-amine] | > 100
FC[C@@H]1CCc2nc3c(F)cc(-c4nc(Nc5ccc(CN6C7CCC6CNC7)cn5)ncc4F)cc3n21 [Example 32, N-(5-((3,8-diazabicyclo[3.2.1]octan-8-yl)methyl)pyridin-2-yl)-5-fluoro-4-((S)-5-fluoro-1-(fluoro-methyl)-2,3-dihydro-1H-benzo[d]pyrrolo[1,2-a]imidazol-7-yl)pyrimidin-2-amine] | > 100
CN1CC2CCC(C1)N2Cc1ccc(Nc2ncc(F)c(-c3cc(F)c4nc5n(c4c3)[C@H](CF)CC5)n2)nc1 [Example 33, 5-fluoro-4-((S)-5-fluoro-1-(fluoromethyl)-2,3-dihydro-1H-benzo[d]pyrrolo[1,2-a]imidazol-7-yl)-N-(5-((3-methyl-3,8-diazabicyclo[3.2.1]octan-8-yl)methyl)pyridin-2-yl)pyrimidin-2-amine] | 10 to 100
CCN1CC2CCC(C1)N2Cc1ccc(Nc2ncc(F)c(-c3cc(F)c4nc5n(c4c3)[C@H](CF)CC5)n2)nc1 [Example 34, N-(5-((3-ethyl-3,8-diazabicyclo[3.2.1]octan-8-yl)methyl)pyridin-2-yl)-5-fluoro-4-((S)-5-fluoro-1-(fluoromethyl)-2,3-dihydro-1H-benzo[d]pyrrolo[1,2-a]imidazol-7-yl)pyrimidin-2-amine] | 10 to 100
FC[C@@H]1CCc2nc3c(F)cc(-c4nc(Nc5ccc(CN6CC7CCC(C6)N7)cn5)ncc4F)cc3n21 [Example 35, N-(5-((3,8-diazabicyclo[3.2.1]octan-3-yl)methyl)pyridin-2-yl)-5-fluoro-4-((5)-5-fluoro-1-(fluoro-methyl)-2,3-dihydro-1H-benzo[d]pyrrolo[1,2-a]imidazol-7-yl)pyrimidin-2-amine] | > 100
CN1C2CCC1CN(Cc1ccc(Nc3ncc(F)c(-c4cc(F)c5nc6n(c5c4)[C@H](CF)CC6)n3)nc1)C2 [Example 36, 5-fluoro-4-((5)-5-fluoro-1-(fluoromethyl)-2,3-dihydro-1H-benzo[d]pyrrolo[1,2-a]imidazol-7-yl)-N-(5-((8-methyl-3,8-diazabicyclo[3.2.1]octan-3-yl)methyl)pyridin-2-yl)pyrimidin-2-amine] | > 100
CCN1C2CCC1CN(Cc1ccc(Nc3ncc(F)c(-c4cc(F)c5nc6n(c5c4)[C@H](CF)CC6)n3)nc1)C2 [Example 37, N-(5-((8-ethyl-3,8-diazabicyclo[3.2.1]octan-3-yl)methyl)pyridin-2-yl)-5-fluoro-4-((S)-5-fluoro-1-(fluoromethyl)-2,3-dihydro-1H-benzo[d]pyrrolo[1,2-a]imidazol-7-yl)pyrimidin-2-amine] | 10 to 100
Fc1cnc(Nc2ccc(N3CCNCC3)cn2)nc1-c1cc(F)c2nc3n(c2c1)[C@H](C(F)F)CC3 [Example 38, (S)-4-(1-(difluoromethyl)-5-fluoro-2,3-dihydro-1H-benzo[d]pyrrolo[1,2-a]imidazol-7-yl)-5-fluoro-N-(5-(piperazin-1-yl)pyridin-2-yl)pyrimidin-2-amine] | > 100
CCN1CCN(c2ccc(Nc3ncc(F)c(-c4cc(F)c5nc6n(c5c4)[C@H](C(F)F)CC6)n3)nc2)CC1 [Example 40, (S)-4-(1-(difluoromethyl)-5-fluoro-2,3-dihydro-1H-benzo[d]pyrrolo[1,2-a]imidazol-7-yl)-N-(5-(4-ethylpiperazin-1-yl)pyridin-2-yl)-5-fluoropyrimidin-2-amine] | > 1000
Fc1cnc(Nc2ccc(CN3CCN4CCC[C@@H]4C3)cn2)nc1-c1cc(F)c2nc3n(c2c1)[C@H](C(F)F)CC3 [Example 41, 4-((S)-1-(difluoromethyl)-5-fluoro-2,3-dihydro-1H-benzo[d]pyrrolo[1,2-a]imidazol-7-yl)-5-fluoro-N-(5-(((R)-hexahydropyrrolo[1,2-a]pyrazin-2(1H)-yl)methyl)pyridin-2-yl)pyrimidin-2-amine] | 10 to 100
Fc1cnc(Nc2ccc(CN3CC4(CCNCC4)C3)cn2)nc1-c1cc(F)c2nc3n(c2c1)[C@H](C(F)F)CC3 [Example 42, (S)-N-(5-((2,7-diazaspiro[3.5]nonan-2-yl)methyl)pyridin-2-yl)-4-(1-(difluoromethyl)-5-fluoro-2,3-dihydro-1H-benzo[d]pyrrolo[1,2-a]imidazol-7-yl)-5-fluoropyrimidin-2-amine] | > 100
CN1CCC2(CC1)CN(Cc1ccc(Nc3ncc(F)c(-c4cc(F)c5nc6n(c5c4)[C@H](C(F)F)CC6)n3)nc1)C2 [Example 43, (S)-4-(1-(difluoromethyl)-5-fluoro-2,3-dihydro-1H-benzo[d]pyrrolo[1,2-a]imidazol-7-yl)-5-fluoro-N-(5-((7-methyl-2,7-diazaspiro[3.5]nonan-2-yl)methyl)pyridin-2-yl)pyrimidin-2-amine] | 10 to 100
CCN1CCC2(CC1)CN(Cc1ccc(Nc3ncc(F)c(-c4cc(F)c5nc6n(c5c4)[C@H](C(F)F)CC6)n3)nc1)C2 [Example 44, (S)-4-(1-(difluoromethyl)-5-fluoro-2,3-dihydro-1H-benzo[d]pyrrolo[1,2-a]imidazol-7-yl)-N-(5-((7-ethyl-2,7-diazaspiro[3.5]nonan-2-yl)methyl)pyridin-2-yl)-5-fluoropyrimidin-2-amine] | 10 to 100
Fc1cnc(Nc2ccc(CN3CC4(CNC4)C3)cn2)nc1-c1cc(F)c2nc3n(c2c1)[C@H](C(F)F)CC3 [Example 45, (S)-N-(5-((2,6-diazaspiro[3.3]heptan-2-yl)methyl)pyridin-2-yl)-4-(1-(difluoromethyl)-5-fluoro-2,3-dihydro-1H-benzo[d]pyrrolo[1,2-a]imidazol-7-yl)-5-fluoropyrimidin-2-amine] | > 1000
CN1CC2(C1)CN(Cc1ccc(Nc3ncc(F)c(-c4cc(F)c5nc6n(c5c4)[C@H](C(F)F)CC6)n3)nc1)C2 [Example 46, (S)-4-(1-(difluoromethyl)-5-fluoro-2,3-dihydro-1H-benzo[d]pyrrolo[1,2-a]imidazol-7-yl)-5-fluoro-N-(5-((6-methyl-2,6-diazaspiro[3.3]heptan-2-yl)methyl)pyridin-2-yl)pyrimidin-2-amine] | 10 to 100
